{"source": "patent US6878514B1", "about": "“Methods for identifying agents that inhibit serum aging factors and uses and compositions thereof” (Purdue Research Foundation, priority 1999, dated 2005)", "key": {"[1]": {"target": "T1, NOX (NADH oxidase / ubiquinol oxidase) from HeLa cells (Homo sapiens, UniProt Q16206)", "T1 construct": "other: HeLa NOX preparation; other: NOX partially purified from surface of HeLa cells", "T1 sequence (Q16206 1-610)": "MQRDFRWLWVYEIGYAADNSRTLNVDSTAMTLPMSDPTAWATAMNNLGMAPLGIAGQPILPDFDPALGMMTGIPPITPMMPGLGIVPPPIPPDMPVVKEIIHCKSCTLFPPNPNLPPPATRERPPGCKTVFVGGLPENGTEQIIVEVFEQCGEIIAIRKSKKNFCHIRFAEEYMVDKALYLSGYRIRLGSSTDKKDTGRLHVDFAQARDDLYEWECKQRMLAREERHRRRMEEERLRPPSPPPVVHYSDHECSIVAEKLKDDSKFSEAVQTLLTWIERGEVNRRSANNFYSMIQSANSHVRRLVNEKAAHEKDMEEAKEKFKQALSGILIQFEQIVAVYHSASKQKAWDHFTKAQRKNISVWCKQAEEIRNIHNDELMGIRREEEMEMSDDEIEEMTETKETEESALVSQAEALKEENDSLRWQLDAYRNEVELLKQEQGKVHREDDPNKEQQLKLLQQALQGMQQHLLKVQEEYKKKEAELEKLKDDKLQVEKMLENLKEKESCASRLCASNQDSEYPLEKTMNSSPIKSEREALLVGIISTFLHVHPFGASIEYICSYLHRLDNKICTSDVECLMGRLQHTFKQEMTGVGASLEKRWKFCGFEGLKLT", "test": "NOX-catalyzed oxidation of ubiquinol (preparation solubilized from HeLa cells)", "format": "biochemical", "details": "HeLa NOX preparation; for EC50: read-out: EC50 inhibition of NOX-catalyzed oxidation of ubiquinol", "method": "(§1) FIG. 1. Oxidation of reduced ubiquinol at 37° C. by an enzymatic preparation with NADH oxidase activity solubilized from HeLa cells by low pH treatmnent, followed by heat and proteinase K. The disappearance of reduced ubiquinol was determined from the increase in absorbance at 410 nm as a function of time in the presence of 1 mg of the HeLa protein. The concentration of quinol was 50 mM, pH 7.\n(§2) Ubiquinol oxidation was estimated based on increase in absorbance at 410 nm for ubiquinone (FIG. 1)."}, "[2]": {"target": "T1, NOX (NADH oxidase / ubiquinol oxidase) from HeLa cells", "details": "NOX partially purified from surface of HeLa cells; cited from earlier work"}, "[3]": {"tested_on": "AR-NOX in sera", "test": "Cytochrome c reduction by sera and inhibition by SOD or ubiquinone (Q10)", "format": "biochemical, human", "method": "(§3) The generation of superoxide radical was determined by assaying the rate of superoxide dismutase (SOD)-inhibitable cytochrome c reduction (Mayo and Curnette, 1990, Meth Enzymol. 186:567-575 and Butler et al., 1982, J. Biol. Chem. 257:10747-10750). The cytochrome c was from horse heart mitochondria (type VI, Sigma) and was dissolved in PBSG buffer (see below) to make a solution with a concentration of 1 mg/ml. Air-saturated reaction mixtures of […] cytochrome c stock solution and […] of a cell suspension (suspended in PBSG buffer) to give a final concentration of ˜5×10^6 cells/ml were added to 2 ml of PBSG buffer (138 mM NaCl, 2.7 mM KCl, 8.1 mM Na2HHPO4, pH 7.4 supplemented with 0.9 mM CaCl2, and 7.5 mM glucose and contained in plastic cuvettes. The formation of reduced cytochrome c was measured in the presence and absence of SOD (15 mg, Sigma) or capsaicin (2.5 mM) by comparing the absorbance of the mixture at 550 nm-540 nm. Superoxide formation was stimulated by using a handheld UV light (254 nm, 200 mw/cm^2). The extent of cytochrome c reduction was monitored spectrophotometrically at 550 nm every ten sec with gentle mixing between readings. Data were analyzed from the slope of the change in a 550 nm-540 nm before and after UV and then again after SOD or capsaicin was added. Data were expressed as nmoles O2[…]/10^6 cells using a value of SM550nm=19.1×10^3 M^−1 cm^−1.\nCytochrome c reduction by sera was assayed as for cells except that the samples were not mixed in between readings. The Q10 was added as an ethanolic solution.\nSera were obtained from the patient population of St. Elizabeth Hospital, Lafayette, Ind. and the resident population of St. Anthony's Health Care, Lafayette, Ind. Confidentiality of medical records was assured by assigning a number to each sample."}, "[4]": {"tested_on": "MCF 10A", "test": "UV-induced superoxide production (cytochrome c reduction) by MCF 10A cells", "format": "cell-based, human", "method": "as §3"}, "[5]": {"target": "T2, partially-purified preparation of the oxidase from HeLa cells (Homo sapiens, UniProt Q16206)", "T2 construct": "endogenous in cells; host or cells: HeLa", "T2 sequence (Q16206 1-610)": "T1 sequence (Q16206 1-610)", "test": "UV-induced superoxide generation by partially-purified oxidase from HeLa cells", "format": "biochemical"}, "[6]": {"tested_on": "BT-20", "test": "UV-induced superoxide production (cytochrome c reduction) by BT-20 cells", "format": "cell-based, human", "method": "as §3"}, "[7]": {"tested_on": "HeLa S", "test": "UV-induced superoxide production (cytochrome c reduction) by HeLa S cells", "format": "cell-based, human", "method": "as §3"}, "[8]": {"tested_on": "T3, NOX (NADH oxidase / ubiquinol oxidase) from HeLa cells", "T3 construct": "rows headed: Km for quinol; other: substrate of NOX-catalyzed oxidation; Response of NOX-catalyzed oxidation of ubiquinol to agent; other: HeLa NOX preparation; Km for reduced Q10H2; other: NOX partially purified from surface of HeLa cells", "test": "NOX-catalyzed oxidation of ubiquinol (preparation solubilized from HeLa cells)", "format": "biochemical, human", "details": "read-out: Km for quinol; substrate of NOX-catalyzed oxidation; heading: Km for quinol", "method": "as §1, §2"}, "[9]": {"tested_on": "T3, NOX (NADH oxidase / ubiquinol oxidase) from HeLa cells", "details": "read-out: Km for reduced Q10H2; NOX partially purified from surface of HeLa cells; heading: Km for reduced Q10H2; cited from earlier work"}}, "note": "Where two headings read alike, the source gives them in different places.", "data": [{"smiles": "Cc1ccc(S(=O)(=O)NC(=O)Nc2ccc(Cl)cc2)cc1", "note": "[LY181984, N-(4-methylphenylsulfonyl)-N′-(4-chlorophenyl)urea]", "values": [{"measurement": "Type of inhibition of NOX-catalyzed oxidation of ubiquinol", "setting": "[1]", "result": "competitive"}, {"measurement": "EC50", "setting": "[1]", "result": 30, "unit": "nM"}, {"measurement": "Inhibition of ubiquinol oxidase activity", "setting": "[2]", "result": "inhibited competitively"}]}, {"smiles": "COC1=C(OC)C(=O)C(C/C=C(\\C)CC/C=C(\\C)CC/C=C(\\C)CC/C=C(\\C)CC/C=C(\\C)CC/C=C(\\C)CC/C=C(\\C)CC/C=C(\\C)CC/C=C(\\C)CCC=C(C)C)=C(C)C1=O", "note": "[Q10]", "values": [{"measurement": "Effect on superoxide-generating, aging-related enzymatic activity of sera", "setting": "[3]; 0.1 mM coenzyme Q, sera of elderly individuals 80-94 years", "result": "substantially reduced"}, {"measurement": "Inhibition of reduction of cytochrome c by sera of aged patients, on average", "setting": "[3]; sera of aged patients, average", "result": 36, "unit": "%"}, {"measurement": "Reduction of cytochrome c by sera, + 45 mg Q10", "setting": "[3]; sera of individuals 83-95 years (n = 5)", "result": "2.5 ± 1.4", "unit": "nmoles/min/ml/sera"}]}, {"smiles": "COc1cc(CNC(=O)CCCC/C=C/C(C)C)ccc1O", "note": "[capsaicin, 8-methyl-N-vanillyl-6-noneamide]", "values": [{"measurement": "Effect on UV-induced generation of superoxide", "setting": "[4]; MCF10A", "result": "unaffected"}, {"measurement": "Reduction of cytochrome c as a measure of superoxide formation, After UV, + Capsaicin", "setting": "[4]; MCF 10A, 10 minutes of 254 nm UV, 2.5 mM capsaicin in DMSO, corrected for DMSO blank", "result": 7.2, "unit": "nmoles/min/10^6 cells"}, {"measurement": "Effect on UV-induced superoxide generation by partially-purified oxidase", "setting": "[5]", "result": "inhibited"}, {"measurement": "Effect on response to UV (superoxide generation)", "setting": "[6]", "result": "inhibited"}, {"measurement": "Reduction of cytochrome c as a measure of superoxide formation, After UV, + Capsaicin", "setting": "[6]; 10 minutes of 254 nm UV, 2.5 mM capsaicin in DMSO, corrected for DMSO blank", "result": "−3.7", "unit": "nmoles/min/10^6 cells"}, {"measurement": "Type of inhibition of NOX-catalyzed oxidation of ubiquinol", "setting": "[1]", "result": "competitive"}, {"measurement": "EC50", "setting": "[1]", "result": 1, "unit": "nM"}, {"measurement": "Inhibition of ubiquinol oxidase activity", "setting": "[2]", "result": "inhibited competitively"}, {"measurement": "Effect on response to UV (superoxide generation)", "setting": "[7]; HeLa", "result": "inhibited"}, {"measurement": "Reduction of cytochrome c as a measure of superoxide formation, After UV, + Capsaicin", "setting": "[7]; HeLa S, 10 minutes of 254 nm UV, 2.5 mM capsaicin in DMSO, corrected for DMSO blank", "result": 0.8, "unit": "nmoles/min/10^6 cells"}]}, {"smiles": "COc1c(O)c(C)c(C/C=C(\\C)CC/C=C(\\C)CC/C=C(\\C)CC/C=C(\\C)CC/C=C(\\C)CC/C=C(\\C)CC/C=C(\\C)CC/C=C(\\C)CC/C=C(\\C)CCC=C(C)C)c(O)c1OC", "note": "[quinol]", "values": [{"measurement": "Km", "setting": "[8]", "result": 33, "unit": "µM"}, {"measurement": "Km", "setting": "[9]", "result": 30, "unit": "µM"}]}]}
